Type in all cases: cell-based
Assay [1] deals with CEM-CCRF human lymphoblast cells. Kind of assay: Transwell migration assay in CEM-CCRF lymphoblasts. The following applies: for EC50: read-out: Migration CEM EC50. Here is the method:
Thus, to confirm CXCR4 functional activity, UCUF-728 was evaluated in a 96 w transwell migration assay in CEM human lymphoblast cells.
CEM-CCRF (ATCC CCL-119) were suspended in RPMI 1640 (Corning; 10-040-CV) at 5.0×10^5 cells/mL and allowed to incubate in cell culture incubator at 37° C. with 5% CO2 for one hour. […] Plates were reassembled and placed in a cell culture incubator at 37° C. with 5% CO2 for three hours. After incubation, Multi-Screen plate was disassembled and 100 μl of solution was collected from compound receiver tray and transferred to 96 well luminescent plate (Thermo Scientific; 265302) and an equal volume of ATPLite Istep luminescence reagent (Perkin Elmer, Waltham, MA; 6016731) was added to each well. Luminescence was measured using the CLARIOstar Plus (BMG LABTECH Inc., Cary, NC).

The target in assay [2] is T1, CXCR4 (Homo sapiens, UniProt P61073). Kind of assay: β-arrestin recruitment, 384-well, Tango CXCR4-bla U2OS cells, normalized to SDF-1α. Further details: host or cells: U2OS. The following applies: normalized to SDF-1; for EC50: read-out: TANGO β-arrestin EC50; for Emax: U2OS, read-out: TANGO β-arrestin Emax (%). Here is the method:
Tango™ CXCR4-bla U2OS Cells (Invitrogen; K1779) were used for (β-arrestin recruitment assays and maintained as a monolayer culture in McCoy's 5a (Corning; 10-050-CV) supplemented with 10% dialyzed Fetal Bovine Serum (Gibco; 26400-044), 0.1 mM MEM Non-essential amino acids solution, 25 mM HEPES solution (Corning; 25-060-CI), 1 mM Sodium Pyruvate (Gibco; 11360-070), 200 μg/mL Zeocin selection reagent (Gibco; R25001), 50 μg/mL Hygromycin B (Gibco, 10687010), and 100 μg/mL Geneticin (G418 Sulfate) (Gibco, 10131035). U2OS cells were subcultured twice weekly by 0.05% Trypsin-EDTA treatment (Corning; 25-051-CI) and passaged to continue exponential growth phase for cell signaling assays. All cell cultures were maintained in cell culture incubators at 37° C. with 5% CO2. CHO-K1 CXCR4 cells (DiscoverX, Fremont, CA, USA) were used for cAMP inhibition assays and maintained as a monolayer culture in DMEM/F12 (Corning; 10-091-CV) supplemented with 10% Fetal Bovine Serum (Corning; 35-011-CV) and 100IU penicillin, […] streptomycin sulfate (Corning; 30-002-CI) and […] G418 (Gibco; 101310350. Cells were subculture 2 times weekly by o.o5% Trypsin-EDTA treatment (Corning; 25-051-CI) and passaged to continue exponential growth phase for cell signaling assays. All cell cultures were maintained in cell culture incubators at 37° C. with 5% CO2.CEM-CCRF cells (ATCC CCL-119) were used in both the migration and calcium flux assays and were cultured in growth media consisting of RPMI 1640 (Corning; 10-040-CV) supplemented with 10% Fetal Bovine Serum (Corning; 35-011-CV), and 100 IU penicillin, […] streptomycin sulfate (Corning; 30-002-CI). Cells were maintained in suspension and sub-cultured twice weekly to maintain cell densities between 0.8×10^6 cells/mL and 2.5×10^6 cells/mL to maintain exponential growth phase. Cells were harvested for use in migration and calcium flux assays at 2.0×10^6 cells/mL to 2.5×10^6 cells/mL and resuspended in assay media to desired density for respective experiments.
Tango™ CXCR4-bla U2OS Cells were resuspended in assay media consisting of DMEM (Corning; Corning, NY) supplemented with 1% dialyzed Fetal bovine serum, 0.1 mM MEM Non-essential amino acids solution, 25 mM HEPES solution (Corning; Corning, NY), 1 mM Sodium Pyruvate and 100 IU penicillin, […] streptomycin sulfate (Corning; Corning, NY) at a density of 3.0×10^5 cells/ml. Assay media FreeStyle 293 expression Medium (Gibco; 12338018) was used for testing the thiadiazine scaffold CXCR4 agonists. Cells suspension was dispensed at 30 μl per well into assay plate and incubated overnight in a cell culture incubator at 37° C. with 5% CO2. […] Following overnight incubation, LiveBlazer FRET B/G Loading Kit (Invitrogen; K1095) working reagent was prepared according to supplier guidelines and 6 μl of solution was dispensed into each well; 8 μL of solution for testing the thiadiazine scaffold CXCR4 agonists. Assay plate was covered and incubated in a dark place for two hours and Fluorescence Intensity was measured using the BMG LABTECH CLARIOstar Plus (BMG LABTECH Inc., Cary, NC) according to the LiveBlazer FRET B/G Loading Kit excitation and emission measurement guidelines.
Results are expressed as mean±SD for 3 to 5 independent experiments. Statistically significant differences in gene expression between two groups were assessed by Student's T-test, ANOVA with an appropriate post hoc test was be used for multiple comparisons. P<0.05 was considered to be statistically significant. All concentration response curves were analyzed to determine EC50 and Emax using the following equation:
where Y is the normalized response (0-100%), X is the log of concentration of compound tested, and the Hill slope is equal to 1.0% and 100% activity are specific to each assay. […]

For assay [3], the target named is T1, CXCR4. Put plainly: primary 1536 w β-arrestin recruitment assay (FRET, β-lactamase reporter) in U2OS cells overexpressing CXCR4. The following applies: for Emax: U2OS, read-out: CXCR4 b-arrestin Emax (%); for activity in primary β-arrestin assay: SAR discussion. Further details: host or cells: U2OS. Here is the method:
In an effort to identify CXCR4 activators from the NIH Molecular Library Small Molecule Repository (MLSMR), a primary screening assay was developed to measure β-arrestin recruitment to the activated G-protein coupled receptor by Florescence Resonance Energy Transfer (FRET) in U2OS cells overexpressing the CXCR4 receptor engineered with a β-lactamase (bla) reporter system (Invitrogen cat #K1779). CXCR4-bla cells plated in 1536 w were stimulated in the presence of 10 uM compound concentration. […] Using this approach, 370,620 compounds from the NIH MLSMR were successfully screened and 303 hits were identified (hit rate=0.08%; Z′=0.83). […] These compounds were graded according to activity and structure resulting in 86 compounds that met criteria as potential CXCR4 agonists for further characterization.
Chemical stability, synthetic tractability, solubility and complete dose response and potency criteria led to the prioritization of the 5-aryl-2-cyclopropyl oxazole scaffold, represented by primary hit Compound 2 (Table 1). Early structure-activity relationship was established around the 5-aryl-2-cyclopropyl oxazole core with commercially available analogs with diverse substituents in the sulfonanilide ring of the scaffold. […] Keeping the 2-OMe substituent constant a small set of electron withdrawing and electron rich substituents at the 5-position of the anilide ring were screened (entries 16-19).
A general note: Recruitment of arrestin is a read-out of receptor activation apart from second messengers.

Like-named read-outs stand apart in the source and are kept apart here.

T1 sequence (P61073 whole entry): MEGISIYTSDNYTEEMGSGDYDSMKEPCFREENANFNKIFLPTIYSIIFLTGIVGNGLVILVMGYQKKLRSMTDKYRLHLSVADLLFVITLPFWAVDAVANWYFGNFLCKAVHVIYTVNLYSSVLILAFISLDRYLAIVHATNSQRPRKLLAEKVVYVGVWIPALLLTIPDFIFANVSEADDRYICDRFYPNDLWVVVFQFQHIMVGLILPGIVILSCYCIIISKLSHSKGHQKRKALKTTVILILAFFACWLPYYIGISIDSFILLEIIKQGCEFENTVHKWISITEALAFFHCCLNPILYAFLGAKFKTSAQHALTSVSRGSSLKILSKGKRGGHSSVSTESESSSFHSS

Regarding `CCOc1ccccc1-c1nnc2n1N=C(c1ccc(NCc3ccccc3)cc1)CS2` [Entry 47], the EC50 in assay [1] (Homo sapiens) and in assay [2] was over 10 µM in each case.

As usually defined, the Emax is the maximal effect, on the per cent scale that the assay sets. Regarding `CCOc1ccccc1-c1nnc2n1N=C(c1ccc(NCC3CC3)cc1)CS2` [Entry 48], the figures for the EC50 in assay [1] (Homo sapiens) and in assay [2] were over 10 µM and under 5 µM, respectively. Further, the maximum response (Emax) in assay [2] is under 35%.

For `CCOc1ccccc1-c1nnc2n1N=C(c1ccc(NCC3CCCC3)cc1)CS2` [Entry 49], the EC50 in assay [1] and in assay [2] was over 10 µM each time.

In the case of `CCOc1ccccc1-c1nnc2n1N=C(c1ccc(N3CCCC3=O)cc1)CS2` [Entry 63], in assay [1] (Homo sapiens), the maximal effect (Emax) was in the range of 35 to 70%. Further, in assay [2], the Emax is under 35% and the EC50 is under 5 µM.

As for `CCOC(=O)C1CCN(c2ccc(C3=Nn4c(nnc4-c4ccccc4OCC)SC3)cc2)C1` (stereo not drawn) [Entry 66], in assay [1], the “Migration CEM Emax (%)” value was “B (35 < B < 70)” and the EC50 is under 5 µM. Moreover, in assay [2], the “TANGO β-arrestin Emax (%)” value is “C (C ≤ 35)” and the EC50 was over 10 µM.

For the compound `CCOc1ccccc1-c1nnc2n1N=C(c1ccc(C(=O)Nc3ccccc3)cc1)CS2` [Entry 69], in assay [1] (Homo sapiens), the Emax lay within 35 to 70% and the EC50 is under 5 µM. Moreover, in assay [2], the Emax was under 35% and the EC50 was under 5 µM.

`CCOc1ccccc1-c1nnc2n1N=C(c1ccc(C(=O)O)cc1)CS2` [Entry 70] yielded a maximal response (Emax) in assay [1] (Homo sapiens) of 35 to 70%. Besides, the EC50 is under 5 µM in assay [1] (Homo sapiens) and over 10 µM in assay [2].

For `CCOc1ccccc1-c1nnc2n1N=C(c1ccc(C(=O)OC)cc1)CS2` [Entry 71], in assay [1] (Homo sapiens), the Emax lay in the range of 35 to 70% and the EC50 was under 5 µM. In addition, in assay [2], the maximal effect (Emax) was under 35% and the EC50 was under 5 µM.

Turning to `COc1ccc(OC)c(-c2nnc3n2N=C(c2ccc(N4CCC4)cc2)CS3)c1` [Entry 80], the Emax in assay [1] (Homo sapiens) was 35 to 70%; in assay [2] it was under 35%. Moreover, the EC50 in assay [1] (Homo sapiens) and in assay [2] was under 5 µM each time.

Consider `CCc1ccccc1NS(=O)(=O)c1ccc(-c2cnc(C3CC3)o2)cc1` [compound 3], for which, in assay [3], the maximum response (Emax) was found to be 38%.

`CCOc1ccccc1NS(=O)(=O)c1ccc(-c2cnc(C3CC3)o2)cc1` [compound 5]: in assay [3] (1536 w screening platform), the EC50 was 1 µM. The Emax in assay [3] was 46%.

As to `CCOc1ccc(NS(=O)(=O)c2ccc(-c3cnc(C4CC4)o3)cc2)cc1` [compound 9], the Emax in assay [3] worked out at 38%.

Consider `Cc1cccc(NS(=O)(=O)c2ccc(-c3cnc(C4CC4)o3)cc2)c1C` [compound 10], for which, in assay [3], the maximum response (Emax) came to 40%.

As for `Cc1ccc(NS(=O)(=O)c2ccc(-c3cnc(C4CC4)o3)cc2)c(C)c1` [compound 12], the Emax in assay [3] worked out at 38%.

As for `Cc1ccc(C)c(NS(=O)(=O)c2ccc(-c3cnc(C4CC4)o3)cc2)c1` [compound 13], in assay [3], the “activity in primary β-arrestin assay” value is “most active among the dimethyl analogs” and the maximal effect (Emax) was found to be 42%.

Take `Cc1cccc(C)c1NS(=O)(=O)c1ccc(-c2cnc(C3CC3)o2)cc1` [compound 14]: in assay [3], the “activity in primary β-arrestin assay” value is “most active among the dimethyl analogs” and the Emax was determined as 45%.

Consider `Cc1cc(C)cc(NS(=O)(=O)c2ccc(-c3cnc(C4CC4)o3)cc2)c1` [compound 15], for which the maximal response (Emax) in assay [3] was determined as 39%.

Take `COc1ccc(F)cc1NS(=O)(=O)c1ccc(-c2cnc(C3CC3)o2)cc1` [compound 17]: the Emax in assay [3] turned out to be 42%.

As for `COc1ccc(NS(=O)(=O)c2ccc(-c3cnc(C4CC4)o3)cc2)cc1OC` [compound 20], in assay [3], the “activity in primary β-arrestin assay” value is “inactive or had marginal activity”.
